According to patent US11883447B2, “Methods and probiotic compositions for the treatment of metabolic diseases and disorders” (Research Development Foundation, priority 2019, dated 2024):

Columns and labels:
ovariectomized mice [1] = experiment: Oral glucose tolerance test (OGTT) in ovariectomized mice gavaged with bacteria; format: in vivo; settings: oral gavage every second day
Method: (§1) Ovariectomy: Mice were anesthetised with Xylazin/Ketamin (injection of 120 μl of a mixture of 120 mg/kg ketamine and 16 mg/kg xylazine) and shaved below the ribs on the back side. Betadine was applied to the area for appropriate disinfection. After a 1-2 cm incision through the skin and the muscle layer just below the ribs, the ovary was localized, the fallopian tube ligated with dissolving suture and the ovary removed. The muscle layer was sutured with dissolving suture, the wound closed with staples and disinfected. The same procedure was performed on the other side. A dose of Tamgesic was administered 4 hours after the surgery, and the staples were removed 7 days after the surgery under isoflurane anaesthesia. The sham-operated animals underwent the same procedure, without ligating the fallopian tube and the ovary excision.
(§2) Single microbe transplantation: Lactobacillus Gasseri (DSM 20604) and Parabacteroides Goldsteinii (DSM 19948) were purchased from DSMZ. Lactobacillus reuteri (PTA-6475) and Akkermansia Muciniphila (BAA835) was purchased from ATCC. […]
(§3) Metabolic Experiments: Oral glucose tolerance tests (OGTT) were performed after 10 hr overnight fasting by oral gavage of glucose bolus ([…] body weight). […] Insulin level during the OGTT was measured with the Mouse Insulin ELISA kit (ref. 10-1247-01, Mercodia), following the manufacturer's instructions.

ovariectomized mice [2] = experiment: Insulin tolerance test in ovariectomized mice gavaged with bacteria; format: in vivo; settings: 0.5 U/kg insulin, glycemia over 2 h
Method: as §1, §2, §3

[3] = system: Parabacteroides goldsteinii; experiment: Bacterial growth in media supplemented with polyamines; format: cell-based; settings: in vitro, various concentrations in growth media
Text: (§4) The inventors next investigated whether culturing several bacteria with beneficial metabolic effects can be affected by presence of polyamines in the growth media. […] To further address whether the general growth of bacteria present in fresh fecal samples is affected, we inoculated fresh mouse fecal content in a growth media supplemented with various concentrations of spermine or spermidine.

Lactobacillus Gaseri = experiment: as above; format: cell-based; settings: in vitro, various concentrations in growth media
Text: as §4

Lactobacillus Reuteri = experiment: as above; format: cell-based; settings: in vitro, various concentrations in growth media
Text: as §4

[4] = system: bacterial mix from mouse fecal samples; experiment: Growth of bacterial mix from fresh mouse fecal content in media with polyamines; format: cell-based; settings: in vitro, various concentrations; exponential growth phase
Text: as §4

Compound | Oral glucose tolerance (ovariectomized mice [1]) | Insulin sensitivity (insulin tolerance test) (ovariectomized mice [2]) | Growth of Parabacteroides goldsteinii [3] | Growth of Lactobacillus Gaseri (Lactobacillus Gaseri) | Growth of Lactobacillus Reuteri (Lactobacillus Reuteri) | Optical density of fecal bacterial mix [4]
Lactobacillus Reuteri | improved | improved |  |  |  | 
NCCCNCCCCNCCCN [spermine, N, N′-bis (3-aminopropyl)-1,4-butane diamine] |  |  | increased the growth | increased the growth | increased the growth | increased the optical density during the exponential growth phase
NCCCCNCCCN [spermidine] |  |  | increased the growth | increased the growth | increased the growth | increased the optical density during the exponential growth phase
